Experimental data published in patent US4871744A, “Certain 2,3-dihydro-indole-1-carboxamido-N-[8-azabicyclo(3.2.1)octan-3-yl]d e” (priority 1988, dated 1989).
Structures can show the parent of a compound that is named as a salt.

Test system: von Bezold-Jarisch reflex evoked by 5-HT
Test: Antagonism of the von Bezold-Jarisch reflex evoked by 5-HT in the anaesthetised rat
Type: in vivo
Conditions: urethane-anaesthetised male rats, 5-HT-evoked changes in heart rate, 5-HT usually 6 μg/kg i.v.; for ED50: Rattus norvegicus, iv, read-out: ED50 (concentration required to reduce the 5HT-evoked response to 50% of the control response)
Protocol: Antagonism of the von Bezold-Jarisch reflex
The compounds were evaluated for antagonism of the von Bezold-Jarisch reflex evoked by 5-HT in the anaesthetised rat according to the following method:
Pharmacol. 2, 229-245 (1980). A submaximal dose of 5-HT (usually 6 μg/kg) was given repeatedly by the intravenous route and changes in heart rate quantified. Compounds were given intravenously and the concentration required to reduce the 5HT-evoked response to 50% of the control response (ED50) was then determined.

SMILES	ED50 [µg/kg]	ED50 (concentration required to reduce the 5HT-evoked response to 50% of the control response) (i.v.) [µg/kg]
CN1[C@@H]2CCC[C@H]1C[C@@H](NC(=O)N1CCc3ccccc31)C2 [Example 1, endo-N-(9-Methyl-9-azabicyclo[3.3.1]non-3-yl)-2,3-dihydroindole-1-carboxamide]	12.5	–
CN1[C@@H]2CC[C@H]1C[C@@H](NC(=O)N1CCc3ccccc31)C2 [Example 2, endo-N-(8-Methyl-8-azabicyclo[3.2.1]oct-3-yl)-2,3-dihydroindole-1-carboxamide]	1.4	–
CN1[C@@H]2CC[C@H]1C[C@@H](OC(=O)N1CCc3ccccc31)C2 [Example 3, endo(8-Methyl-8-azabicyclo[3.2.1]oct-3-yl)-2,3-dihydroindole carboxylic acid ester]	5	–
CC1CN(C(=O)N[C@H]2C[C@H]3CC[C@@H](C2)N3C)c2ccccc21 (stereo partly drawn) [Example 4, endo-N-(8-Methyl-8-azabicyclo[3.2.1]oct-3-yl)-2,3-dihydro-3-methylindole-1-carboxamide hydrochloride]	3	–
CN1[C@@H]2CC[C@H]1C[C@@H](NC(=O)N1CC(C)(C)c3ccccc31)C2 [Example 5, endo-N-(8-Methyl-8-azabicyclo[3.2.1]oct-3-yl)-2,3-dihydro-3,3-dimethylindole-1-carboxamide]	0.58	–
Cc1cn(C(=O)N[C@H]2C[C@H]3CC[C@@H](C2)N3C)c2ccccc12 [Example 6, endo-N-(8-Methyl-8-azabicyclo[3.2.1]oct-3-yl)-3-methylindole-1-carboxamide hydrochloride]	1.6	–
CCN1[C@@H]2CC[C@H]1C[C@@H](NC(=O)N1CCc3ccccc31)C2 [Example 7, endo-N-(8-Ethyl-8-azabicyclo[3.2.1]oct-3-yl)-2,3-dihydroindole-1-carboxamide]	> 10	–
CN1[C@@H]2CC[C@H]1C[C@@H](NC(=O)N1CCc3cc(F)ccc31)C2 [Example 8, endo-N-(8-Methyl-8-azabicyclo[3.2.1]oct-3-yl)-5-fluoro-2,3-dihydroindole-1-carboxamide hydrochloride]	17	–
CN1[C@@H]2CC[C@H]1C[C@@H](NC(=O)N1CCc3cc(Cl)ccc31)C2 [Example 9, endo-N-(8-Methyl-8-azabicyclo[3.2.1]oct-3-yl)-2,3-dihydro-5-chloroindole-1-carboxamide]	> 10	–
COc1ccc2c(c1)CCN2C(=O)N[C@H]1C[C@H]2CC[C@@H](C1)N2C [Example 10, endo-N-(8-Methyl-8-azabicyclo[3.2.1]oct-3-yl)2,3-dihydro-5-methoxyindole-1-carboxamide]	7	–
CN1[C@@H]2CC[C@H]1C[C@@H](NC(=O)n1ccc3ccccc31)C2 [Example 11, endo-N-(8-Methyl-8-azabicyclo[3.2.1]oct-3-yl)indole-1-carboxamide hydrochloride]	7.7	–
Cl.O=C(NC1CN2CCC1CC2)N1CCc2ccccc21 (stereo not shown) [Example 12, N-(1-Azabicyclo[2.2.2]oct-3-yl)2,3-dihydroindole-1-carboxamide hydrochloride]	4.4	–
O=C(OC1CN2CCC1CC2)N1CCc2ccccc21 (stereo not shown) [Example 13, N-(1-Azabicyclo[2.2.2]oct-3-yl)-2,3-dihydroindole-1-carboxylic acid ester]	–	3.9
CCC1CN(C(=O)N[C@H]2C[C@H]3CC[C@@H](C2)N3C)c2ccccc21 (stereo partly drawn) [Example 14, endo-N-(8-Methyl-8-azabicyclo[3.2.1]oct-3-yl)-2,3-dihydro-3-ethylindole-1-carboxamide hydrochloride]	1	–
CCc1cn(C(=O)N[C@H]2C[C@H]3CC[C@@H](C2)N3C)c2ccccc12 [Example 15, endo-N-(8-Methyl-8-azabicyclo[3.2.1]-oct-3-yl)-3-ethylindole-1-carboxamide hydrochloride]	2	–
CN1[C@@H]2CC[C@H]1C[C@@H](NC(=O)N1CCc3cc([N+](=O)[O-])ccc31)C2 [Example 16, endo-N-(8-Methyl-8-azabicyclo[3.2.1]oct-3-yl)-2,3-dihydro-5-nitroindole-1-carboxamide]	> 10	–
CN1[C@@H]2CC[C@H]1C[C@@H](NC(=O)N1CCc3ccc([N+](=O)[O-])cc31)C2 [Example 17, endo-N-(8-Methyl-8-azabicyclo[3.2.1]oct-3-yl)-2,3-dihydro-6-nitroindole-1-carboxamide hydrochloride]	> 10	–
CC1(C)CN(C(=O)NC2CN3CCC2CC3)c2ccccc21 (stereo not shown) [Example 18, N-(1-Azabicyclo[2.2.2]oct-3-yl)2,3-dihydro-3,3-dimethylindole-1-carboxamidehydrochloride]	5.3	–
CC1Cc2ccccc2N1C(=O)N[C@H]1C[C@H]2CC[C@@H](C1)N2C (stereo partly drawn) [Example 19, (endo)-N-(8-Methyl-8-azabicyclo[3.2.1]oct-3-yl)-2,3-dihydro-2-methylindole-1-carboxamide hydrochloride]	0.79	–
CC1c2ccccc2N(C(=O)N[C@H]2C[C@H]3CC[C@@H](C2)N3C)C1C (stereo partly drawn) [Example 20, (endo)-N-(8-Methyl-8-azabicyclo[3.2.1]oct-3-yl)-2,3-dihydro-2,3-dimethylindole-1-carboxamide]	0.53	–
CC1N(C(=O)N[C@H]2C[C@H]3CC[C@@H](C2)N3C)c2ccccc2C1(C)C (stereo partly drawn) [Example 21, (endo)-N-(8-Methyl-8-azabicyclo[3.2.1]oct-3-yl)-2,3-dihydro-2,3,3-trimethylindole-1-carboxamide hydrochloride]	1.4	–
CC(C)C1CN(C(=O)N[C@H]2C[C@H]3CC[C@@H](C2)N3C)c2ccccc21 (stereo partly drawn) [Example 22, (endo)-N-(8-Methyl-8-azabicyclo[3.2.1]oct-3-yl)-2,3-dihydro-3-isopropylindole-1-carboxamide hydrochloride]	0.56	–
